Counter-ions that a name gives are not always drawn. Like-named read-outs stand apart in the source and are kept apart here.
Key:
[1] = test system: primary forebrain neurons; experiment: cells; details: for EC50: Mus musculus, Neuron
Description: Primary forebrain cell culture and maintenance. Forebrains of P0 Mt or Mt/Ai14 pups without olfactory bulbs and meninges were collected and placed in ice cold Ca^2+ and Mg^2+ free HBSS supplemented with 2 μg/ml gentamicin, 25 mM D-glucose, 1 mM pyruvate and 20 mM HEPES. Brain tissue was digested with 0.6 mg/ml papain at 37° C. for 20 min. Forebrains were washed with plating media [Neurobasal (Gibco), 5% FBS, 4 mM GlutaMAX (Gibco), 2 μg/ml gentamicin]. The tissue was gently triturated, allowed to settle and the supernatant was filtered through a 40 μm mesh-sized cell strainer. Cells were centrifuged at 420×g for 4 min and resuspended in plating media. 15,000 cells per well were plated with 2×10^8 viral particles/ml onto black Greiner μClear (Cat #781946) or Ultra-Low Base Aurora with evaporation barrier (Cat #ABE201201B) 384-well plates (80 μl/well) pre-coated with poly-D-lysine for the primary screen and rescreen, respectively. Plating and media changes were performed using an automated Biomek FX^P liquid handling workstation. Four hr after plating, 75% of the plating media was replaced by feeding media [Neurobasal-A (Gibco), 4 mM GlutaMAX (Gibco), 2 μg/ml gentamicin, 2% B27 (Gibco)]. At DIV4, 50% of the media was exchanged with fresh feeding media supplemented with 16 μM 5-Fluoro-2′-deoxyuridine (FUdR) to prevent glial cell over-growth. At DIV8 and DIV12, additional 50% media changes were made without FUdR. Cells were maintained at 37° C. and 5% CO2; plates were topped with Breathe-Easy adhesive membranes (Greiner plates) to minimize evaporation.
Compounds and compound transfer.
Imaging. Images were captured using a GE Incell 6000 system (60× objective, 0.95 NA, 16-bit images) equipped with environmental control (37° C., 5% CO2). Mt-GFP (green channel) was imaged by confocal imaging (3 slices, Δz=0.7 μm, aperture=1.0 AU, λexc=488 nm, λem=515-535 nm). Cyto-tdTomato (red channel) and MitoTracker Orange (red channel) were imaged using confocal mode (3 slices, Δz=0.7 μm, aperture=1.0 AU, λexc=561 nm, λem=569-641 nm, MitoTracker Orange) or with widefield mode (Cyto-tdTomato). TMRM imaged for the co-localization experiments with Mt-GFP was imaged using the confocal mode (3 slices, […] aperture=1.0, λexc=488, λem=569-641 nm). For the live-dead assay, primary neurons were imaged with a 20× (widefield mode, NA 0.45) objective using λexc=561 nm and λem=569-641 nm for the propidium iodide stained dead cells (red channel), and λexc=488 nm and λem=515-535 nm for the fluorescein diacetate stained live cells (green channel). 10 fields were collected from each well, and 4 wells were imaged/condition in the live-dead assay. For all other experiments, 4 fields/well were imaged unless otherwise stated.
Automated data analysis pipeline. Most experiments utilized only Mt-GFP; some utilized both Mt-GFP and Cyto-tdTomato. The Z-projected images were preprocessed using a custom Fiji macro. For preprocessing of Mt-GFP images: background was subtracted (rolling ball, radius=3), images were median filtered (radius=1) and somatic mitochondria were removed. For removal of the somatic mitochondria, they were first segmented and then a somatic mitochondrial mask overlaid on the image.

[2] = test system: primary neurons; experiment: TMRM fluorescence assay of inner mitochondrial membrane potential (ΔΨm); details: for TMRM Primary: primary screen; for TMRM Primary / TMRM Rescreen: 24 h; for Emax: read-out: TMRM (Effect-size); for EC50: read-out: TMRM-EC50; for TMRM (Effect-size): maximal percent increase relative to in-plate DMSO controls
[3] = test system: primary neurons; experiment: CellTiter-Glo luminescence-based ATP assay; format: cell-based, mouse; details: for ATP: ATP orthogonal screen, 24 h; for EC50 / Emax / ATP (Effect-size): dose response; for EC50: 15 concentrations from 6 nM to 100 uM; for Emax / ATP (Effect-size): maximal percent increase relative to in-plate DMSO controls; for Emax: read-out: ATP (Effect-size)
Outline: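 Primary neurons treated from DIV13 for 24 h with compound or DMSO. After part of the medium was removed, CellTiter-Glo reagent was added; plates were shaken 10 min at 200 rpm, kept 2 min in the dark at room temperature, and luminescence read as total ATP.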

[4] = rescreen, 12.5 μM, 24 h, vs DMSO wells
[5] = 24 h, read-out: Health (Ax Mt Circularity) EC50
[6] = 24 h, read-out: Mt Content (Dend Mt CA) EC50
[7] = 24 h, read-out: Elongation (Dend Mt length) EC50
[8] = 24 h, read-out: Sprouting (Neurite Area) EC50
[9] = dose response, 15 concentrations from 6 nM to 100 uM

| Molecule | Dendritic Mt CA [1, 4] [robust Z-scores] | Neurite Area [1, 4] [robust Z-scores] | TMRM Primary ([2]; 12.5 μM) [Z-scores] | TMRM Rescreen [2] [Z-scores] | ATP [3] [Z-scores] | also measured |
| --- | --- | --- | --- | --- | --- | --- |
| COc1cc(OC)c2c(c1)O[C@H](c1ccc(OC)c(OC)c1)[C@@H](O)C2 | 2.44 | 1.87 | – | – | – | – |
| C[C@@H](N)[C@@H](O)c1ccccc1 [1R,2S-PHENYLPROPYLAMINE] | 3.14 | 1.25 | – | – | – | – |
| O=C(/C=C/c1ccc(O)cc1)c1ccccc1O [2′,4-DIHYDROXYCHALCONE] | 2.57 | 0.01 | – | – | – | – |
| O=C(/C=C/c1ccccc1)c1ccc(O[C@@H]2O[C@H](CO)[C@@H](O)[C@H](O)[C@H]2O)cc1O [2′,4′-DIHYDROXYCHALCONE 4′-GLUCOSIDE] | 4.44 | −0.18 | – | – | – | – |
| O=c1c(O)c(-c2ccccc2)oc2cccc(O)c12 [3,5-DIHYDROXYFLAVONE] | 3.43 | 1.20 | – | – | – | – |
| O=c1c(O)c(-c2ccccc2)oc2cc(O)ccc12 [3,7-DIHYDROXYFLAVONE] | 2.78 | 1.37 | – | – | – | – |
| O=c1cc(-c2ccccc2)oc2ccc(O)cc12 [6-HYDROXYFLAVONE] | 2.88 | 0.69 | – | – | – | – |
| COc1ccccc1-c1coc2cc(O)ccc2c1=O [7-HYDROXY-2′-METHOXYISOFLAVONE] | – | – | – | – | – | EC50 [1, 5]: 200 nM; EC50 [1, 6]: > 25000 nM |
| CC[C@@]1(O)C(=O)OCc2c1cc1n(c2=O)Cc2cc3cc(O)ccc3nc2-1 [10-HYDROXYCAMPTOTHECIN] | 2.23 | 2.29 | – | – | – | – |
| CN1CCc2cccc3c2[C@H]1Cc1ccc(O)c(O)c1-3 [APOMORPHINE HYDROCHLORIDE] | 2.10 | −0.07 | – | – | – | – |
| CCCC1O[C@@H]2C[C@H]3[C@@H]4CCC5=CC(=O)C=C[C@]5(C)[C@H]4[C@@H](O)C[C@]3(C)[C@]2(C(=O)CO)O1 (stereo partly shown) [BUDESONIDE] | 2.16 | −0.61 | – | – | – | – |
| CCCCCOC(=O)Nc1nc(=O)n([C@@H]2O[C@H](C)[C@@H](O)[C@H]2O)cc1F [CAPECITABINE] | 2.88 | 0.58 | – | – | – | – |
| CNC(=O)Oc1cccc2ccccc12 [CARBARIL] | 2.03 | −0.48 | – | – | – | – |
| CC(C)CCC[C@@H](C)[C@H]1CC[C@H]2[C@@H]3CC=C4CC(=O)CC[C@]4(C)[C@H]3CC[C@]12C [CHOLEST-5-EN-3-ONE] | 2.78 | −0.65 | – | – | – | – |
| C#CCN(C)CCCOc1ccc(Cl)cc1Cl [CLORGILINE HYDROCHLORIDE] | 4.33 | −0.36 | – | – | – | EC50 [1, 7]: 5000 nM; EC50 [1, 5]: 300 nM; EC50 [1, 6]: 1000 nM; EC50 [1, 8]: > 25000 nM |
| COc1ccc2c(c1)[C@]13CCCC[C@@H]1[C@H](C2)N(C)CC3 [DEXTROMETHORPHAN HYDROBROMIDE] | – | – | – | – | – | Dendritic Mt CA [1]: 2.38 robust Z-scores; Neurite Area [1]: 0.21 robust Z-scores |
| C=C(C)c1cc2cc(C(C)=O)c(O)cc2o1 [EUPARIN] | 4.22 | 1.17 | – | – | – | – |
| O=C(CCCN1CCC(O)(c2ccc(Cl)cc2)CC1)c1ccc(F)cc1 [HALOPERIDOL] | 2.99 | −2.37 | – | – | – | – |

| Molecule | Dendritic Mt CA [1, 4] [robust Z-scores] | Neurite Area [1, 4] [robust Z-scores] | TMRM Primary ([2]; 12.5 μM) [Z-scores] | TMRM Rescreen [2] [Z-scores] | ATP [3] [Z-scores] | also measured |
| --- | --- | --- | --- | --- | --- | --- |
| FC(F)(F)C(Cl)Br (stereo not shown) [HALOTHANE] | – | – | – | – | – | Dendritic Mt CA [1]: 2.60 robust Z-scores; Neurite Area [1]: 2.65 robust Z-scores |
| COc1ccc2c(c1)[nH]c1c(C)nccc12 [HARMINE] | 3.65 | −1.63 | – | – | – | EC50 [1, 7]: 1700 nM; EC50 [1, 5]: > 25000 nM; EC50 [1, 8]: > 25000 nM |
| CC[C@H]1CN2CC[C@H]1C[C@@H]2[C@@H](O)c1ccnc2ccc(OC)cc12 [HYDROQUINIDINE] | 2.19 | −0.15 | – | – | – | – |
| CC1=C(/C=C/C(C)=C/C=C/C(C)=C\C(=O)O)C(C)(C)CCC1 [ISOTRETINON] | 2.69 | 0.77 | – | – | – | – |
| Nc1nnc(-c2cccc(Cl)c2Cl)c(N)n1 [LAMOTRIGINE] | 4.75 | 1.00 | – | – | – | – |
| CC12CC3CC(C)(C1)CC(N)(C3)C2 [MEMANTINE HYDROCHLORIDE] | 3.25 | 1.45 | – | – | – | confirmation in the re-screen ([1]; 12.5 μM, 10 replicate plates): weak hits |
| CN(C)CCOc1ccc(/C(=C(/CCCl)c2ccccc2)c2ccccc2)cc1 [toremifene citrate] | – | – | 3.31 | 7.05 | 3.29 | – |
| CSc1nc2cc(Cl)c(Oc3cccc(Cl)c3Cl)cc2[nH]1 [triclabendazole] | – | – | 3.30 | 3.61 | 3.97 | – |
| OC(CCN1CCCCC1)(c1ccccc1)C1CCCCC1 (stereo not shown) [trihexyphenidyl hydrochloride] | – | – | 6.07 | 7.08 | 5.95 | Emax ([2]; Mus musculus, Primary neuron): 20%; EC50 ([2]; Mus musculus, Primary neuron): 3200 nM; EC50 ([3]; Mus musculus, Primary neuron): 170 nM; Emax ([3]; Mus musculus, Primary neuron): 17.8% |
| CC(CN(C)C)CN1c2ccccc2CCc2ccccc21 (stereo not shown) [trimipramine maleate] | – | – | 5.18 | 5.16 | 5.24 | Emax ([2]; Mus musculus, Primary neuron): 20%; EC50 ([2]; Mus musculus, Primary neuron): 360 nM; EC50 ([3]; Mus musculus, Primary neuron): 180 nM; Emax ([3]; Mus musculus, Primary neuron): 16.4% |
| CCOC(=O)C1=C[C@]2(CC)CCCN3CCc4c(n1c1ccccc41)[C@@H]32 [vinpocetine] | – | – | 5.76 | 6.16 | 6.29 | – |
| acetophenazine maleate | – | – | 5.64 | 5.34 | 5.65 | TMRM (Effect-size) ([2]; dose response): 17.5%; EC50 [2, 9]: 1150 nM; EC50 [3]: 300 nM; ATP (Effect-size) [3]: 16.7% |
| butacaine sulfate | – | – | 3.85 | 5.06 | 6.99 | – |
| carvedilol phosphate | – | – | 5.81 | 5.43 | 6.87 | – |
| colistin sulfate | – | – | 3.27 | 5.24 | 5.48 | – |
| pizotyline malate | – | – | 3.21 | 5.84 | 7.13 | TMRM (Effect-size) ([2]; dose response): 25.2%; EC50 [2, 9]: 2600 nM; EC50 [3]: 360 nM; ATP (Effect-size) [3]: 17.9% |
| trimebutine maleate | – | – | 3.79 | 5.82 | 6.14 | hit in TMRM primary screen when assayed at 4 h ([2]; 12.5 μM, 4 h): trimebutine maleate* |
| trimeprazine tartrate | – | – | 3.13 | 3.94 | 5.75 | – |

Reference: patent publication US20230003721A1, “MITOTHERAPEUTICS FOR THE TREATMENT OF BRAIN DISORDERS” (The University of Florida Research Foundation, Inc., priority 2019, published 2023)
